Source: patent US20210052701A1, “Methods of Treating Vascular Leakage Using CXCL12 Peptides” (The Medical College of Wisconsin, Inc., priority 2018, published 2021)
Entries after “also recorded” stand apart in the source; their conditions may differ.

Assays:
[1] = tested on: hPPAEC; assay: In vitro vascular permeability assay (FITC-dextran), hPPAEC monolayer, CXCR4/ACKR3 ligands without thrombin; assay type: cell-based, human; details: 50 nM ligand for 10 min, then FITC-dextran; no thrombin
Protocol: FIGS. 1A-1B show expression of CXCR4, ACKR3 and CXCR4:ACKR3 heteromers on hPPAEC and effects of CXCR4/ACKR3 ligands on hPPAEC monolayer permeability. (A) Detection of CXCR4, ACKR3 and CXCR4:ACKR3 heteromers on hPPAEC by PLA. Typical PLA images for the detection of individual receptors and CXCR4:ACKR3 heteromers. Images show merged PLA/40,6-diamidino-2-phenylindole dihydrochloride (DAPI) signals. Ctrl: Omission of one secondary antibody. (B) hPPAEC were grown to a confluent monolayer on collagen-coated permeable membranes. Cells were then exposed to vehicle or 50 nM of CXCR4/ACKR3 ligands for 10 minutes, as indicated, followed by the addition of FITC-dextran. Endothelial permeability was assessed by measuring the amount of FITC-dextran that permeated through the cell monolayer. N=3 in quadruplicate. No cells: 100% permeability, open squares. RFU: Relative fluorescence units. *: p<0.05 vs. vehicle (2-way ANOVA/Bonferroni's multiple comparison post hoc test).
Cells and cell lines—Human primary pulmonary artery endothelial cells (hPPAEC) (ATCC, PCS-100-022) and the human lung microvascular endothelial cell line HULEC-5a (ATCC, CRL-3244) were cultured in vascular cell basal medium (ATCC, PCS-100-030) with endothelial cell growth kit-VEGF (ATCC, PCS-100-041). The HTLA cell line, a HEK293 cell line stably expressing a tTA-dependent luciferase reporter and a β-arrestin2-TEV fusion gene, was generously provided by the laboratory of Dr. Bryan Roth and maintained in high glucose Dulbecco's Modified Eagle's Medium supplemented with 10% (vol/vol) FBS, 1× non-essential amino acids, 100 U/mL penicillin, 100 μg/mL streptomycin, 50 μg/mL hygromycin B, and 2 μg/mL puromycin. All cells were cultured at 37° C., 5% CO2 in a humidified atmosphere.
In vitro vascular permeability assays—Permeability assays were obtained from Millipore (ECM642) and performed as per manufacturer's instructions. In brief, 96-well collagen-coated permeability assay plates were pre-hydrated for 15 min, 5×10^5 cells were seeded on each well and grown to a confluent monolayer for 48 hours. Fluorescein isothiocyanate (FITC)-dextran (20 μg/mL) was then added on top of the monolayer and the amount of FITC-dextran that permeated through the monolayer was quantified by measuring fluorescence in a Synergy 2 Multi-mode Microplate Reader (BioTek, Winooski, Vt.) at various time points over a 255 min time period.

[2] = tested on: HULEC-5a; assay: Effects of CXCL12 and ubiquitin on thrombin-induced impairment of HULEC-5a monolayer permeability; assay type: cell-based, human; details: thrombin 50 nM, after 10 min 50 nM ligand
Protocol: FIGS. 4A-4D show effects of CXCL12 and ubiquitin on thrombin-induced impairment of HULEC-5a monolayer permeability. (A) HULEC-5a were grown to a confluent monolayer on collagen-coated permeable membranes and then exposed to different concentration of thrombin for 10 min, followed by the addition of FITC-dextran. Endothelial permeability was assessed by measuring the amount of FITC-dextran that permeated through the cell monolayer. No cells: 100% permeability. RFU: Relative fluorescence units. N=3 in quadruplicate. (B) Dose-response curves for thrombin-induced permeability, data from A. 100% permeability=permeability in the absence of HULEC-5a. Open squares: Permeability at t=55 min. Light grey squares: Permeability at t=135 min. Dark grey squares: Permeability at t=255 min. […] Endothelial permeability was assessed by measuring the amount of FITC-dextran that permeated through the cell monolayer. RFU: Relative fluorescence units. […]
In vitro vascular permeability assays—Permeability assays were obtained from Millipore (ECM642) and performed as per manufacturer's instructions. […] Fluorescein isothiocyanate (FITC)-dextran (20 μg/mL) was then added on top of the monolayer and the amount of FITC-dextran that permeated through the monolayer was quantified by measuring fluorescence in a Synergy 2 Multi-mode Microplate Reader (BioTek, Winooski, Vt.) at various time points over a 255 min time period.

[3] = target: CXCL12 (Homo sapiens, UniProt P48061); details: read-out: dimerization Kd; cited from earlier work
Sequence of CXCL12 (P48061 22-89 limits assumed): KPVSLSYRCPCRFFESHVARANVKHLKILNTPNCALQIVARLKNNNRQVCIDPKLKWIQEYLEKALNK

For “CXCL12: Wild-type CXCL12 (SEQ ID NO:1), cognate agonist of CXCR4 and ACKR3”, the “effect on hPPAEC monolayer permeability” value [1] is given as “enhanced hPPAEC barrier function”, the “effect on thrombin-mediated impairment of HULEC-5a barrier function when added after thrombin” value [2] is given as “significantly reduced thrombin-mediated impairment of endothelial cell barrier function; also recorded: less efficacious in HULEC-5a cells than in hPPAEC” and the Kd [3] is given as 140 µM.
